The subject of data set [1] is HEK293. Kind of data set: Inhibition of MMP9 gene transcription in PMA-stimulated HEK293 cells after 24 hrs by luciferase reporter gene assay. Format: functional, cell-based. Conditions: Homo sapiens, HEK293, 24 h. In general terms: Reporter assays use an easily measured gene product as a stand-in for the process of interest.
Data set [2] deals with THP-1. The experiment in a line: Inhibition of MMP9 secretion in PMA-stimulated human THP1 cells at 20 uM. The data set is classed as functional, cell-based.
A short description of data set [3]: Inhibition of NF-kappaB-mediated transcriptional activity transfected in PMA-stimulated HEK293 cells after 24 hrs by luciferase reporter gene assay. Conditions: HEK293, 24 h. Format: cell-based.
For data set [4], the system named is THP-1. Kind of data set: Cytotoxicity against human THP1 cells at 20 uM by MTT assay. Format: functional, cell-based. On the technique in general: Tetrazolium assays rely on reduction of a dye to a coloured formazan, in cell work by metabolically active cells.
The test system of data set [5] is HEK293. Kind of data set: Cytotoxicity against HEK293 cells at 20 uM by MTT assay. Format: cell-based. The conditions noted are these: human, hek293, 20 µM.

SMILES strings stand for the structures. Calls of active or inactive are those of the source. The calls are words filed in the database; no cut-off is given here.

In general, IC50 refers to the concentration that gives 50% inhibition. Low values mean inhibition by little substance, high ones a need for much substance. Consider `C=C1C(=O)O[C@H]2[C@@H]3[C@@H](CC[C@@]3(C)O)C(=C)CC[C@@H]12`, for which the IC50 is 6.6 µM with HEK293 [1] and 8.8 µM in data set [3]. Moreover, in the data set on THP-1 [2], the result was Active. For the same compound, the Activity result was “Not toxic” with THP-1 [4] and “Non-toxic” with HEK293 [5].

Turning to `C=C1C(=O)O[C@H]2[C@@H]3[C@@H](CC[C@@]3(C)O)[C@](C)(OC)CC[C@@H]12`, the IC50 in the data set on HEK293 [1] is 8.6 µM; in data set [3] it was 6 µM. Moreover, the result in the data set with THP-1 [2] was Active. For the same compound, the Activity entry in the data set on THP-1 [4] was “Not toxic”; with HEK293 [5], “Non-toxic”.

Regarding `C=C1C(=O)O[C@@H]2C3O[C@]3(C)CC/C=C(\C)CC[C@@H]12` (stereo partly drawn), the IC50 in the data set on HEK293 [1] was found to be 6.6 µM; in data set [3], 9.76 µM. The result in the data set with THP-1 [2] was Active. Also, the Activity entry with THP-1 [4] is “Not toxic”; with HEK293 [5], “Non-toxic”.

Regarding `C=C1C(=O)O[C@@H]2[C@@H](O)[C@]3(C)CC[C@H]3[C@](C)(OC)CC[C@@H]12`, the IC50 is 3.2 µM with HEK293 [1] and 2.04 µM in data set [3]. Moreover, the Activity entry with THP-1 [4] is “Not toxic”; in the data set with HEK293 [5] it was “Non-toxic”.

For the compound `C=C1C(=O)O[C@@H]2[C@@H](O)[C@]3(C)CC[C@H]3[C@](C)(O)CC[C@@H]12`, the IC50 in the data set with HEK293 [1] came out at 3.8 µM; in data set [3] it was 2.8 µM. The figures for the Activity entry in the data set on THP-1 [4] and with HEK293 [5] were “Not toxic” and “Non-toxic”, respectively.

On to `C=C1C(=O)O[C@H]2[C@H]1CC/C(C)=C\CC[C@@]1(C)O[C@@H]21`, for which the half-maximal inhibitory concentration (IC50) was 8.5 µM in the data set on HEK293 [1] and 7.4 µM in data set [3]. Moreover, in the data set on THP-1 [2], the result was Active. The figures for the Activity result in the data set on THP-1 [4] and with HEK293 [5] were “Not toxic” and “Non-toxic”, respectively.

(Values after ChEMBL document CHEMBL1153356, “Inhibition of NF-kB and metalloproteinase-9 expression and secretion by parthenolide derivatives” (Bioorg Med Chem Lett, 2009).)
